Numbers after ± are expanded uncertainties.
Experiments:
[1] = for mass density / viscosity: 100.9 kPa, Liquid; for mass density: Vibrating tube method; for viscosity: Cone and plate viscometry; for Triple point temperature: Crystal; for Triple point temperature / Glass transition temperature: DSC
[2] = Molar enthalpy of transition or fusion; details: Crystal; DSC

SMILES: CC(C)[n+]1ccn(C)c1.O=S(=O)([N-]S(=O)(=O)C(F)(F)F)C(F)(F)F
- mass density ([1]; 293.15 K): 1481.9 ± 2 kg/m3
- viscosity ([1]; 293.2 K): 58.3 ± 4.7 mPa·s
- mass density ([1]; 298.15 K): 1476.8 ± 2 kg/m3
- viscosity ([1]; 298.2 K): 45.5 ± 3.7 mPa·s
- mass density ([1]; 303.15 K): 1472 ± 2 kg/m3
- viscosity ([1]; 303.2 K): 36.9 ± 3 mPa·s
- mass density ([1]; 313.15 K): 1462.5 ± 2 kg/m3
- viscosity ([1]; 313.2 K): 24.5 ± 2 mPa·s
- mass density ([1]; 323.15 K): 1452.4 ± 2 kg/m3
- viscosity ([1]; 323.2 K): 19.3 ± 1.6 mPa·s
- mass density ([1]; 333.15 K): 1442.9 ± 2 kg/m3
- viscosity ([1]; 333.2 K): 14.5 ± 1.2 mPa·s
- mass density ([1]; 343.15 K): 1433.4 ± 2 kg/m3
- viscosity ([1]; 343.2 K): 11.2 ± 0.9 mPa·s
- mass density ([1]; 353.15 K): 1423.7 ± 2 kg/m3
- viscosity ([1]; 353.2 K): 8.9 ± 0.7 mPa·s
- Triple point temperature [1]: 283.5 ± 1.8 K
- Molar enthalpy of transition or fusion [2]: 5.78 ± 0.167 kcal/mol

SMILES: C[n+]1ccn(C(C)(C)C)c1.F[P-](F)(F)(F)(F)F [1-tert-butyl-3-methylimidazolium hexafluorophosphate]
- Triple point temperature [1]: 421 ± 1.8 K
- Molar enthalpy of transition or fusion [2]: 5.52 ± 0.167 kcal/mol

SMILES: C[n+]1ccn(C(C)(C)C)c1.O=S(=O)([N-]S(=O)(=O)C(F)(F)F)C(F)(F)F
- mass density ([1]; 293.15 K): 1451.5 ± 2 kg/m3
- viscosity ([1]; 293.2 K): 167.3 ± 14 mPa·s
- mass density ([1]; 298.15 K): 1446.6 ± 2 kg/m3
- viscosity ([1]; 298.2 K): 121.4 ± 10 mPa·s
- mass density ([1]; 303.15 K): 1442 ± 2 kg/m3
- viscosity ([1]; 303.2 K): 91.5 ± 7.4 mPa·s
- mass density ([1]; 313.15 K): 1432.8 ± 2 kg/m3
- viscosity ([1]; 313.2 K): 55.6 ± 4.5 mPa·s
- mass density ([1]; 323.15 K): 1423.1 ± 2 kg/m3
- viscosity ([1]; 323.2 K): 37.5 ± 3 mPa·s
- mass density ([1]; 333.15 K): 1413.8 ± 2 kg/m3
- viscosity ([1]; 333.2 K): 26.2 ± 2.1 mPa·s
- mass density ([1]; 343.15 K): 1404.5 ± 2 kg/m3
- viscosity ([1]; 343.2 K): 19 ± 1.5 mPa·s
- mass density ([1]; 353.15 K): 1395 ± 2 kg/m3
- viscosity ([1]; 353.2 K): 14.5 ± 1.2 mPa·s
- Triple point temperature [1]: 280.4 ± 1.8 K
- Molar enthalpy of transition or fusion [2]: 5.47 ± 0.167 kcal/mol

SMILES: CC(C)[n+]1ccn(C)c1.[I-] [1-methyl-3-(1-methylethyl)imidazolium iodide]
- Triple point temperature [1]: 383.4 ± 1.8 K
- Molar enthalpy of transition or fusion [2]: 3.9 ± 0.12 kcal/mol

SMILES: CC(C)n1cc[n+](C)c1.O=S(=O)([N-]S(=O)(=O)C(F)(F)C(F)(F)F)C(F)(F)C(F)(F)F
- mass density ([1]; 293.15 K): 1556.7 ± 2 kg/m3
- viscosity ([1]; 293.2 K): 172.6 ± 14 mPa·s
- mass density ([1]; 298.15 K): 1551.3 ± 2 kg/m3
- viscosity ([1]; 298.2 K): 121.4 ± 10 mPa·s
- mass density ([1]; 303.15 K): 1546 ± 2 kg/m3
- viscosity ([1]; 303.2 K): 91.7 ± 7.5 mPa·s
- mass density ([1]; 313.15 K): 1535.5 ± 2 kg/m3
- viscosity ([1]; 313.2 K): 53 ± 4.3 mPa·s
- mass density ([1]; 323.15 K): 1524.6 ± 2 kg/m3
- viscosity ([1]; 323.2 K): 38 ± 3.1 mPa·s
- mass density ([1]; 333.15 K): 1514 ± 2 kg/m3
- viscosity ([1]; 333.2 K): 26.4 ± 2.1 mPa·s
- mass density ([1]; 343.15 K): 1503.5 ± 2 kg/m3
- viscosity ([1]; 343.2 K): 19.1 ± 1.5 mPa·s
- mass density ([1]; 353.15 K): 1492.8 ± 2 kg/m3
- viscosity ([1]; 353.2 K): 14.4 ± 1.2 mPa·s
- Glass transition temperature [1]: -75.7 ± 1.8 °C

SMILES: CC(C)[n+]1ccn(C)c1.F[P-](F)(F)(F)(F)F [1-methyl-3-(1-methylethyl)imidazolium hexafluorophosphate]
- Triple point temperature [1]: 374 ± 1.8 K
- Molar enthalpy of transition or fusion [2]: 3.75 ± 0.12 kcal/mol

SMILES: C[n+]1ccn(C(C)(C)C)c1.[I-] [1-tert-butyl-3-methylimidazolium iodide]
- Triple point temperature [1]: 432.7 ± 1.8 K
- Molar enthalpy of transition or fusion [2]: 3.63 ± 0.12 kcal/mol

SMILES: C[n+]1ccn(C(C)(C)C)c1.O=S(=O)([N-]S(=O)(=O)C(F)(F)C(F)(F)F)C(F)(F)C(F)(F)F
- mass density ([1]; 293.15 K): 1530.8 ± 2 kg/m3
- viscosity ([1]; 293.2 K): 571.1 ± 53 mPa·s
- mass density ([1]; 298.15 K): 1525.2 ± 2 kg/m3
- viscosity ([1]; 298.2 K): 367.2 ± 33 mPa·s
- mass density ([1]; 303.15 K): 1519.9 ± 2 kg/m3
- viscosity ([1]; 303.2 K): 246.7 ± 21 mPa·s
- mass density ([1]; 313.15 K): 1509.6 ± 2 kg/m3
- viscosity ([1]; 313.2 K): 126.1 ± 10 mPa·s
- mass density ([1]; 323.15 K): 1498.9 ± 2 kg/m3
- viscosity ([1]; 323.2 K): 80.9 ± 6.6 mPa·s
- mass density ([1]; 333.15 K): 1488.6 ± 2 kg/m3
- viscosity ([1]; 333.2 K): 50.7 ± 4.1 mPa·s
- mass density ([1]; 343.15 K): 1478.4 ± 2 kg/m3
- viscosity ([1]; 343.2 K): 33.9 ± 2.7 mPa·s
- mass density ([1]; 353.15 K): 1467.8 ± 2 kg/m3
- viscosity ([1]; 353.2 K): 23.8 ± 1.9 mPa·s
- Triple point temperature [1]: 294.3 ± 1.8 K
- Glass transition temperature [1]: -58.0 ± 1.8 °C
- Molar enthalpy of transition or fusion [2]: 3.99 ± 0.12 kcal/mol

Source: the NIST ThermoML archive (doi:10.1021/acs.jced.9b00776)
